Data set [1] can be described thus: Radical scavenging activity against DPPH. The protocol:
The experiments were performed as previously reported.

In data set [2] the test system is oncogenic nuclear factor AP-1. As to the kind of experiment: Basal AP-1-dependent transcriptional activity, luciferase reporter in JB6 Cl41 cells. To be noted: Mus musculus; JB6 Cl41 cells with AP-1 luciferase reporter; after 12 h of treatment; read-out: inhibition of transcriptional activity of AP-1, IC50. Format: cell-based. As for the experimental part: The effect of compounds 1–3 and 7 on the basal AP-1-dependent transcriptional activity was also studied using JB6 Cl41 cells stably expressing a luciferase reporter gene controlled by an AP-1-DNA binding sequence.
The effects of the compounds on the basal transcriptional activities of AP-1 were evaluated using the JB6 Cl41 cell line stably expressing a luciferase reporter gene controlled by an AP-1-DNA binding sequence. The experiments were performed as previously reported with slight modifications.
For orientation: In a reporter assay the amount or activity of a reporter protein is the signal.

The subject of data set [3] is CD-1 murine peritoneal macrophages. The experiment in a line: Macrophage adhesion test. The note with it: Mus musculus, 10 µM (non-toxic concentration), 2 h incubation at 37 °C. Format: cell-based. As for the experimental part: Mice were sacrificed by cervical dislocation. Peritoneal macrophages were isolated using standard procedures. For this purpose, 3 mL of PBS (pH 7.4) was immediately injected into the peritoneal cavity and the body intensively palpated for 1–2 min. Then, the peritoneal fluid was aspirated with a syringe and transferred to Petri dishes. Petri dishes with the fluid were incubated at 37 °C for 1–2 h to facilitate attachment of peritoneal macrophages to the dish. Then, a cell monolayer was triply flushed with PBS (pH 7.4) to delete attendant lymphocytes, fibroblasts and erythrocytes. Subsequently, macrophages were removed from the surface of the dishes with a scraper and flow of a saline solution, and then placed on an ice bath until use. The working concentration of cells was usually 1–2 × 10^6 cells/mL. The number of adhered cells was estimated according to standard method with some modifications.
Twenty […] of test compound solutions (at non-toxic concentration 10 μM) and […] of macrophage suspension were added to 96-well flat-bottom plates. After incubation for 2 h at 37 °C, cells were fixed with 70% ethanol solution ([…] per well) for 15 min at RT. […] Finally, the SDS/trypan blue solution absorbance was detected spectrophotometrically at 590 nm using a plate reader. The percentage of adhered cells compared to the control level of Trypan blue absorbance was calculated. […]

The nature of data set [4]: Cytotoxicity towards CD-1 mouse splenocytes. Type of data set: cell-based. To be noted: assayed up to 100 µM, read-out: cytotoxicity against splenocytes IC50. As for the experimental part:
The effect of the compounds on the cells viability was evaluated using the MTS test, which is based on the reduction of MTS into its formazan product by alive cells. Cytotoxicity towards CD-I mouse splenocytes was determined according to Freshney. Hemolytic activity towards CD-I mouse erythrocytes was determined as previously described.

The IC50 is the concentration needed to halve the response being measured. As for `O=C1O[C@H]([C@@H](O)CO)C(O)=C1O` [Ascorbic acid, reference compound], the half-inhibitory concentration (IC50) in data set [1] was found to be 21.3 µM. The compound `Cc1c(O)cc2c(c1O)CO[C@@]1(O[C@@H](C)CC[C@@H]1O)[C@@H]2O` [compound 1, sargassopenilline A] displayed an IC50 in data set [1] of 100 µM. As to `CC(=O)OC1C2=C(CO[C@@]13O[C@@H](C)C[C@H](O)[C@@H]3OC(C)=O)C(=O)C(C)(OC(C)=O)C(=O)C2` (stereo partly shown) [compound 3, sargassopenilline C], in data set [2], the IC50 worked out at 15 µM.

As a reminder, the inhibition is the percentage by which the read-out fell short of the control. The low end stands for a response near the control, the high end for a response far below the control. With `CC(=O)OC1C2=C(CO[C@@]13O[C@@H](C)CC[C@@H]3OC(C)=O)C(=O)C(C)=C(O)C2=O` (stereo partly shown) [compound 4, sargassopenilline D], in data set [3], the inhibition at 10 µM was 30 to 40%. `C[C@H]1C[C@H](O)C[C@@]2(CC3=C(CO2)C(=O)[C@](C)(O)[C@H](O)C3)O1` [compound 5, sargassopenilline E]: the IC50 turned out to be 38 µM in data set [4] and 50 µM in data set [1]. With `CC(=O)O[C@H]1CC[C@H](C)O[C@@]12OCC1=C(C[C@@H](O)[C@@](C)(O)C1=O)C2O` (stereo partly shown) [compound 6, sargassopenilline F], the inhibition at 10 µM in data set [3] is 30 to 40%.

For the origin of these results see PMC4278210, “Sargassopenillines A–G, 6,6-Spiroketals from the Alga-Derived Fungi Penicillium thomii and Penicillium lividum” (Marine Drugs, 2014).
